Like-named read-outs stand apart in the source and are kept apart here.
Tests used:
sigma site [1] = assay: Sigma site binding: inhibition of R(+)-[3H]3-PPP binding; parameters: species or system rat; conditions: for inhibition of binding of R(+)-[3H]3-PPP / affinity for the high affinity sigma site / model describing the interaction with the site labelled by R(+)-[3H]3-PPP: in words; for affinity for the high affinity sigma site: computer-assisted analyses
Procedure: (§1) Membranes were prepared from freshly dissected brains of adult male Sprague-Dawley rats (175-250 g).
R(+-^3 H]3-PPP: Crude membranes were prepared from whole brain (minus cerebellum) as described previously [P. M. Beart et al, J. Neurochem., 53, 779-788 (1989)]. A filtration binding assay was employed under similar conditions to those of Largent et al (1986) with 3 nM R (+)-[^3 H]-3-PPP and a 90 min. incubation at 25° C. (Beart et al, 1989). Non-specific binding was defined with 10 μ1,3-di(2-tolyl)guanidine (DTG).
Binding data were analyzed by the iterative curve fitting programs EBDA and LIGAND as fully described elsewhere [Beart et al, Id., (1989)]. Results obtained from experiments examining spermidine-stimulated binding of ^3 H]TCP were analyzed by the program FLEXIFIT [V. Guardabasso et al, FASEB J., 2, 209-215 (1988)] which iteratively fits data to a sigmoidal model providing estimates of IC50 and slope for the drug under study.

[2] = system: NMDA receptor-ionophore complex (polyamine domain / NMDA ionophore); assay: Spermidine (polyamine)-stimulated [3H]TCP binding, functional model of coupling of the polyamine domain to the NMDA ionophore; conditions: spermidine-stimulated [3H]TCP binding, rat cortex; for IC50: at least two independent experiments
Procedure: Polyamine-stimulated [^3 H]TCP: Crude synaptic ("buffy coat") membranes were prepared from freshly dissected cerebral cortices. Membrane preparations were extensively washed employing 3 freeze-thaw cycles. The final pellet was stored at -70° C. for 1-7 days prior to assay. On the day of assay, the membrane pellet was washed twice by resuspension and centrifugation (45,000 g, 10 min. ). […] Assays were terminated by rapid vacuum filtration through GF/B filter paper (pre-soaked in 0.5% aqueous polyethyleneimine) in a Brandel M-48R Cell Harvester and thorough washing with ice-cold 5 mM Tris HCl pH 7.7.

[3] = target: polyamine domain of the NMDA receptor-complex; assay: Binding of [125I]ifenprodil to rat cortical membranes (polyamine domain interaction)
Procedure: The NMDA receptor-ionophore complex consists of a number of interacting domains, including one for polyamines where ifenprodil binds to exert its noncompetitive antagonism. Ifenprodil was iodinated with Na^125 I/chloramine-T, purified and its binding characterized.
as §1
^125 I]Ifenprodil: Crude membranes were prepared from freshly dissected cerebral cortices as described elsewhere [P. M. Beart et al, Neurosci. Lett., 124, 187-189 (1991)]. Briefly, assays were performed in 5 mM Tris HCl pH 7.7 containing [^125 I]ifenprodil (20,000 dpms, ~20 pM) and cortical membranes (0.5 mg wet wt.) in a final volume of 0 5 mL Incubations were for 30 min at 20° C., in triplicate, employing 12 concentrations of competing drugs. Non-specific binding was defined with 10 mM spermine. Assays were terminated by rapid filtration through GF/B filter paper and washing [Beart et al, Id., (1991)].
Binding data were analyzed by the iterative curve fitting programs EBDA and LIGAND as fully described elsewhere [Beart et al, Id., (1989)].

[4] = Arch. Int. Pharm., 1983; cited from earlier work
NMDA receptor = conditions: C. Carter et al, 1988; cited from earlier work
[5] = in certain cases and mostly high doses; cited from earlier work
NMDA receptor complex = conditions: [3H]TCP and [3H]dizocilpine (MK-801); cited from earlier work
sigma site [6] = conditions: P. C. Contreras et al, 1990; cited from earlier work
sigma site [7] = conditions: J. Benavides et al, 1990; cited from earlier work
[8] = one site fit, pooled data, n = 2 independent experiments, read-out: KG = Dissociation constant for one site fit
[9] = two site fit, value in parentheses (exception to better 2 site fit)
[10] = two site fit, value in parentheses (exception to better 2 site fit), read-out: KH = Dissociation constant at high affinity site for two site fit
[11] = two site fit, value in parentheses (exception to better 2 site fit), read-out: KL = Dissociation constant at low affinity site for two site fit
[12] = rat cortical membranes, mean ± s.e.m., n = 3 or 4, read-out: [125I] IFENPRODIL Kd
[13] = two site fit, fitted better to 2 site model (P < 0.05)
[14] = two site fit, fitted better to 2 site model (P < 0.05), read-out: KH = Dissociation constant at high affinity site for two site fit
[15] = two site fit, fitted better to 2 site model (P < 0.05), read-out: KL = Dissociation constant at low affinity site for two site fit
[16] = n=4 (spermine), n=3 (spermidine), read-out: dissociation constants for spermine and spermidine (inhibition of specific [125I]ifenprodil binding)
[17] = one site fit, *one experiment, read-out: KG = Dissociation constant for one site fit

## CC(C(O)c1ccc2c(c1)CCS2)N1CCC(Cc2ccccc2)CC1 (centres unmarked) [Compound 186]
Sigma site [1]
  inhibition of binding of R(+)-[3H]3-PPP: very potent inhibitors
Sigma site [1]; [8]
  Kd: 30 nM
Sigma site [1]; [9]
  % RH = Percent of high affinity binding sites for two site fit: 72%
Sigma site [1]; [10]
  Kd: 2.9 nM
Sigma site [1]; [11]
  Kd: 600 nM
[2]
  SPERMIDINE [3H] TCP IC50 (class symbol: inhibitory at 50 μM): +
[3]; [12]
  Kd: 6700 ± 1100 nM

## CC(CCCc1ccccc1)NC(C)C(O)c1ccc2c(c1)CCCS2 (centres unmarked) [Compound 42]
[2]
  SPERMIDINE [3H] TCP IC50 (class symbol: inhibitory at 50 μM): +
[3]; [12]
  Kd: 2700 ± 400 nM

## OC(CN1CCC(Cc2ccc(F)cc2)CC1)c1ccc(Cl)cc1 (centres unmarked) [SL82.0715, reference compound]
[3]; 16.7 μM SL 82.0715
  dissociability of [125I]ifenprodil specific binding: poorly dissociable
[3]; n=3, read-out: dissociation constant of SL82.0715 ([125I]ifenprodil binding)
  Kd: 2300 ± 130 nM
[3]; [12]
  Kd: 2300 ± 100 nM

## C[C@H](NCCCCc1ccccc1)[C@@H](O)c1ccc2c(c1)CCS2 (relative stereo) [Compound 183]
Sigma site [1]; [8]
  Kd: 450 nM
Sigma site [1]; [9]
  % RH = Percent of high affinity binding sites for two site fit: 84%
Sigma site [1]; [10]
  Kd: 300 nM
Sigma site [1]; [11]
  Kd: 130000 nM
[2]
  SPERMIDINE [3H] TCP IC50 (class symbol: inhibitory at 50 μM): +
[3]; [12]
  Kd: 9300 ± 5400 nM

## CC(NCCCCc1ccccc1)C(O)c1ccc2c(c1)CCS2 (single isomer, unassigned) [Compound 185]
Sigma site [1]
  inhibition of binding of R(+)-[3H]3-PPP: very potent inhibitors
  affinity for the high affinity sigma site: appreciable affinity
Sigma site [1]; [8]
  Kd: 32 nM
Sigma site [1]; [9]
  % RH = Percent of high affinity binding sites for two site fit: 63%
Sigma site [1]; [10]
  Kd: 4.6 nM
Sigma site [1]; [11]
  Kd: 300 nM
[2]
  IC50: 59000 nM
[3]; [12]
  Kd: 3500 ± 1100 nM

## C[C@H](NCCCCc1ccccc1)[C@H](O)c1ccc2c(c1)CCS2 (relative stereo) [Compound 7]
Sigma site [1]
  affinity for the high affinity sigma site: appreciable affinity
Sigma site [1]; [8]
  Kd: 170 nM
Sigma site [1]; [13]
  % RH = Percent of high affinity binding sites for two site fit: 66%
Sigma site [1]; [14]
  Kd: 44 nM
Sigma site [1]; [15]
  Kd: 11000 nM
[2]
  IC50: 8200 nM
[3]; [12]
  Kd: 3600 ± 300 nM
[4]
  antihypertensive effect: antihypertensive effect
  anxiolytic activity: anxiolytic activity

## 1-(4chlorophenyl)-2-[1-(4-fluorophenyl)piperidinyl]ethanol
NMDA receptor
  NMDA receptor antagonism: noncompetitive NMDA receptor antagonists

## CC(NCCCc1ccccc1)C(O)c1ccc2c(c1)CCCS2 (centres unmarked) [Compound 75]
Sigma site [1]; [8]
  Kd: 340 nM
Sigma site [1]; [13]
  % RH = Percent of high affinity binding sites for two site fit: 67%
Sigma site [1]; [14]
  Kd: 86 nM
Sigma site [1]; [15]
  Kd: 4300 nM
[2]
  SPERMIDINE [3H] TCP IC50 (class symbol: inhibitory at 50 μM): +
[3]; [12]
  Kd: 5000 ± 1400 nM

## CC(NCCCCc1ccccc1)C(O)c1ccc2c(c1)CCS2 (single isomer, unassigned) [Compound 184]
Sigma site [1]
  affinity for the high affinity sigma site: appreciable affinity
Sigma site [1]; [8]
  Kd: 230 nM
Sigma site [1]; [13]
  % RH = Percent of high affinity binding sites for two site fit: 54%
[2]
  SPERMIDINE [3H] TCP IC50 (class symbol: inhibitory at 50 μM): +
[3]; [12]
  Kd: 6300 ± 1800 nM

## OC(CNC1CCCCCC1)c1ccc2c(c1)CCC2 (centres unmarked) [1-(5-indanyl)-2-amino-N-cycloheptyl-ethanol]
[5]
  CNS-activity: in certain cases and mostly high doses posess a CNS-activity

## CC(CCc1ccccc1)NC(C)C(O)c1ccc(O)cc1 (centres unmarked) [Nylidrin, reference compound]
Sigma site [1]
  model describing the interaction with the site labelled by R(+)-[3H]3-PPP: better described by a two-site model
Sigma site [1]; [8]
  Kd: 38 nM
Sigma site [1]; [13]
  % RH = Percent of high affinity binding sites for two site fit: 86%
Sigma site [1]; [14]
  Kd: 19 nM
Sigma site [1]; [15]
  Kd: 11000 nM
[2]
  IC50: 73000 nM
[3]; [12]
  Kd: 30000 ± 8500 nM

## CCCCN(C)CC(O)c1ccc2c(c1)CCC2 (centres unmarked) [1-(5-indanyl)-2-amino-N,N-n-butyl-methylethanol]
[5]
  CNS-activity: in certain cases and mostly high doses posess a CNS-activity

## OC(CN1CCN(Cc2ccccc2)CC1)c1ccc2c(c1)CCC2 (centres unmarked) [1-(5-indanyl)-2-amino-N-phenylmethylpiperazinoethanol]
[5]
  CNS-activity: in certain cases and mostly high doses posess a CNS-activity

## NCCCCNCCCN [spermidine, reference compound]
[3]; [16]
  Kd: 44000 nM
NMDA receptor complex
  effect on binding of channel ligands: profoundly enhance the binding of channel ligands

## CC(C(O)c1ccc2c(c1)CCCS2)N1CCC(Cc2ccccc2)CC1 (centres unmarked) [Compound 26]
[3]; [12]
  Kd: 12000 nM

## CC(NCCCCc1ccccc1)C(O)c1ccc2c(c1)CCCS2 (centres unmarked) [Compound 2]
Sigma site [1]; [17]
  Kd: 400 nM
Sigma site [1]; [9]
  % RH = Percent of high affinity binding sites for two site fit: 72%
Sigma site [1]; [10]
  Kd: 150 nM
Sigma site [1]; [11]
  Kd: 4300 nM
[2]
  SPERMIDINE [3H] TCP IC50 (class symbol: inhibitory at 50 μM): +
[3]; [12]
  Kd: 9300 ± 5500 nM

## CC(C(O)c1ccc(O)cc1)N1CCC(Cc2ccccc2)CC1 (centres unmarked) [Ifenprodil, reference compound]
Sigma site [1]
  model describing the interaction with the site labelled by R(+)-[3H]3-PPP: better described by a two-site model
Sigma site [1]; [8]
  Kd: 20 nM
Sigma site [1]; [13]
  % RH = Percent of high affinity binding sites for two site fit: 82%
Sigma site [1]; [14]
  Kd: 11 nM
Sigma site [1]; [15]
  Kd: 19000 nM
[2]
  IC50: 6800 nM
[3]; [12]
  Kd: 150 ± 30 nM
Sigma site [6]
  affinity for the sigma site in vitro: considerable affinity
NMDA receptor
  NMDA receptor antagonism: noncompetitive NMDA receptor antagonists
Sigma site [7]
  sigma binding affinity in vivo: Sigma binding affinity has also been found in vivo

## C=CCN1CCC2(C)c3cc(O)ccc3CC1C2C (single isomer, unassigned; (+)) [(+)SKF10.047, N-allylnormetazocine, reference compound]
Sigma site [1]; [8]
  Kd: 1500 nM
Sigma site [1]; [13]
  % RH = Percent of high affinity binding sites for two site fit: 60%
Sigma site [1]; [14]
  Kd: 48 nM
Sigma site [1]; [15]
  Kd: 6300 nM

## NCCCNCCCCNCCCN [spermine, reference compound]
[3]; 1 mM spermine
  dissociability of [125I]ifenprodil specific binding: dissociable
[3]; [16]
  Kd: 24000 nM
NMDA receptor complex
  effect on binding of channel ligands: profoundly enhance the binding of channel ligands

## CC(NCCCCOc1ccccc1)C(O)c1ccc2c(c1)CCCS2 (centres unmarked) [Compound 24]
Sigma site [1]; [17]
  Kd: 390 nM
Sigma site [1]; [9]
  % RH = Percent of high affinity binding sites for two site fit: 63%
Sigma site [1]; [10]
  Kd: 89 nM
Sigma site [1]; [11]
  Kd: 3000 nM
[2]
  SPERMIDINE [3H] TCP IC50 (class symbol: inhibitory at 50 μM): +
[3]; [12]
  Kd: 3700 ± 1100 nM

Source: patent US5462965A, “Use of heterocyclic amino-alcohol compounds for treatment of CNS diseases” (GD Searle & Co., priority 1992, dated 1995)
